# Test results published in patent US20050084505A1, “Utilization of ubiquinones for influencing the effect of histamine” (priority 2002, published 2005).
# What was measured:
# [1] = system: Isolated, perfused and ventilated lungs from adult rats; test: Isolated, perfused and ventilated rat lung, histamine-induced constriction
# Protocol: Isolated, perfused and ventilated lungs from adult rats (280 to 330 g body weight) were injected with 50 pg of histamine per lung. After 2 to […], this caused constriction of the bronchial and pulmonary vessels with reduction of the lung extensibility.
# [2] = system: prepared lung tissue and trachea pieces of guinea pigs; details: tissue not aerated, cited from earlier work
# [3] = upon the action of γ-globulin on lung tissue
structure (smiles),measurement,setting,value
"COC1=C(OC)C(=O)C(C/C=C(\C)CC/C=C(\C)CC/C=C(\C)CC/C=C(\C)CC/C=C(\C)CC/C=C(\C)CC/C=C(\C)CC/C=C(\C)CC/C=C(\C)CCC=C(C)C)=C(C)C1=O [CoQ-10, 2,3-dimethoxy-5-methyl-6-decaprenyl-1,4-benzoquinone]",spontaneous vasoconstriction of the lung vessels,"[1]; 2.7 ppm in the perfusate, compared with control perfusion (even below)",decreased
same,delayed histamine reaction (constriction of the bronchial and pulmonary vessels with reduction of the lung extensibility),"[1]; previous addition of 2.7 ppm in the perfusate, 50 pg of histamine per lung, reaction after 2 to 3 hours",completely prevented
same,contraction of lung tissue by added histamine,[2]; continuously administered,increased
same,secretion of SRS-A,[2]; [3],reduced
same,secretion of histamines,[2]; [3],reduced
